Active and inactive are the calls of the source. The rule behind the calls is not given here.
System: Escherichia coli
Assay: Antibacterial activity against Escherichia coli
Assay type: functional, organism-based

Which Activity does the source give for `O=C1O/C(=C\C=C\CO)C=C1/C=C/CO` here?
Its Activity is “inactive”.

From ChEMBL document CHEMBL1150182, “Lissoclinolide, the first non-nitrogenous metabolite from a Lissoclinum tunicate” (J Nat Prod, 1990)
